Where a name gives a salt, the structure may show the parent alone. Read-outs that look alike come from different tables or passages of the source.
Experiments:
Format in all cases: cell-based
[1] = tested on: Aspergillus fumigatus; experiment: Minimum inhibitory concentration (MIC100), CLSI M38-A2 broth dilution
Method: (§1) Antifungal activity of the antifungal formulations of the invention against dermatophytes, as compared to terbinafine hydrochloride alone, is determined in various dermatophytes known to cause onychomycosis, including Trichophyton rubrum, T. mentagrophytes, and Epidermophyton floccosum. Antifungal activity of the antifungal formulations of the invention as compared to terbinafine hydrochloride alone, was determined in various pathogenic fungi, including Aspergillus flavus and Aspergillus fumigatus. Antifungal activity of the antifungal formulations of the invention was measured by the minimum inhibitory concentration (MIC). Antifungal activity can also be measured by minimum fungicidal concentration (MFC).
(§2) Several strains of Aspergillus flavus, Aspergillus fumigatus, and Candida albicans were tested. Trichophyton rubrum MYA4498 and T. mentagrophytes MYA4439, the QC isolates approved by the Clinical and Laboratory Standards Institute (CLSI) for dermatophyte susceptibility testing, can also be tested.
(§3) MIC testing was performed according to the CLSI M38A2 standard for the susceptibility testing of dermatophytes developed at the Center for Medical Mycology (See, Ghannoum et al., 2004, J Clin Microbial. 42(7): 2977-2979 CLSI, Reference Method for Broth Dilution Antifungal Susceptibility Testing of Filamentous Fungi: Approved Standard-Second Edition. CLSI document M38-A2 [ISBN 1-56238-668-9]. CLSI, 940 West Valley Road, Suite 1400, Wayne, Pa. 19087-1898 USA, 2008). Briefly, RPMI was the test medium, incubation temperature and time was 35° C. and 24 hours or 48 hours, respectively, and the inoculum size was 1-3×10^3 conidia/ml. The MIC endpoint was 100% inhibition as compared to the growth control.
(§4) The MIC range, MIC100 (defined as the minimum concentration required to inhibit 100% of the isolates tested), for the antifungal preparations of the invention and comparators was computed. The MFC range, MFC50, MFC90, and MFC100 for the antifungal preparations of the invention and comparators can also be computed.
(§5) In this example, the terbinafine formulation of the invention comprises terbinafine formulated with a phospholipid and a surfactant.

[2] = tested on: Aspergillus flavus; experiment: as above
Method: as §1, §2, §3, §4, §5

[3] = tested on: Trichophyton rubrum MYA4498; experiment: Morphological effects of antifungal preparations on dermatophyte hyphae in vitro (calcofluor white microscopy); conditions: T. rubrum hyphae; for Week 1 Change in morphology If yes, description of change: hydrochloride
Method: The morphological changes to dermatophyte hyphae following exposure to an antifungal formulation of the invention, specifically a terbinafine formulation, compared to terbinafine hydrochloride solution in vitro were evaluated.
Trichophyton rubrum MYA4498, one of the quality control isolates approved by the Clinical and Laboratory Standards Institute (CLSI) for dermatophyte susceptibility testing, was used as a test isolate throughout testing, (See, Ghannoum et al., 2004, J Clin Microbiol. 42(7): 2977-2979; Ghannoum et al., J Clin Microbiol. 44: 353-4350. Inoculum containing 3×10^3 conidia/ml of T. rubrum was prepared in RPMI-1640 buffered with MOPS (Hardy Diagnostics, Santa Maria. CA), added to the wells of microtiter plates (100 ul aliquots) and incubated at 35° C. for 2-3 days until good hyphal growth was achieved. Specific concentrations of 1 mg/ml, 3 mg/ml, and 15 mg/ml of terbinafine alone were prepared in RPMI-1640. The terbinafine hydrochloride (1 mg/ml. 3 mg/ml, and 15 mg/ml) and 15 mg/ml of a terbinafine formulation of the invention was added to the wells of the microtiter plates (100 ul aliquots) and re-incubated. Twenty plates for each drug were set up to ensure adequate sample for examination over several weeks; RPMI was added as needed to maintain the volume of each well at 200 ul.
At pre-determined intervals (24, 48, 72, and 96 hours and once weekly thereafter for a total of 12 weeks), a loopful of hyphal growth from the bottom of each well was removed to a glass microscope slide containing a drop of calcofluor white stain (fluorescent KOH) and covered with a cover slip. Slides were examined microscopically under both white light and UV light. Images from a representative field visualized under each light source were be recorded.
Samples showing significant differences in morphology between exposure of a terbinafine formulation vs. terbinafine alone were further examined under Scanning Electron Microscopy (SEM). Preparation of samples for SEM were performed following previously established methodology (see. Chandra et al., 2001. J. Dent. Res. 80:903-908).

[4] = tested on: Trichophyton rubrum MYA4498; experiment: as above; conditions: T. rubrum hyphae; for Week 1 Change in morphology If yes, description of change: hydrochloride; remark: listed apart in the source

- MIC ([1]; 24 h, A. fumigatus strain MRL No. 2456, 24 hours, read-out: MIC100 (μg/mL) in 24 hours): 0.25 µg/mL
- MIC ([1]; 24 h, A. fumigatus strain MRL No. 2471, 24 hours, read-out: MIC100 (μg/mL) in 24 hours): 0.25 µg/mL
- MIC ([1]; 24 h, A. fumigatus strain MRL No. 2574, 24 hours, read-out: MIC100 (μg/mL) in 24 hours): 0.5 µg/mL
- MIC ([1]; 24 h, A. fumigatus strain MRL No. 16621, 24 hours, read-out: MIC100 (μg/mL) in 24 hours): 0.5 µg/mL
- MIC ([1]; 24 h, A. fumigatus strain MRL No. 16629, 24 hours, read-out: MIC100 (μg/mL) in 24 hours): 0.5 µg/mL
- MIC ([1]; 48 h, A. fumigatus strain MRL No. 2456, 48 hours, read-out: MIC100 (μg/mL) in 48 hours): 234 µg/mL
- MIC ([1]; 48 h, A. fumigatus strain MRL No. 2471, 48 hours, read-out: MIC100 (μg/mL) in 48 hours): 234 µg/mL
- MIC ([1]; 48 h, A. fumigatus strain MRL No. 2574, 48 hours, read-out: MIC100 (μg/mL) in 48 hours): 234 µg/mL
- MIC ([1]; 48 h, A. fumigatus strain MRL No. 16627, 48 hours, read-out: MIC100 (μg/mL) in 48 hours): 234 µg/mL
- MIC ([1]; 48 h, A. fumigatus strain MRL No. 16629, 48 hours, read-out: MIC100 (μg/mL) in 48 hours): 234 µg/mL
- MIC ([2]; 24 h, A. flavus strain MRL No. 17840, 24 hours, read-out: MIC100 (μg/mL) in 24 hours): 0.002 µg/mL
- MIC ([2]; 24 h, A. flavus strain MRL No. 17842, 24 hours, read-out: MIC100 (μg/mL) in 24 hours): 0.002 µg/mL
- MIC ([2]; 24 h, A. flavus strain MRL No. 18736, 24 hours, read-out: MIC100 (μg/mL) in 24 hours): 6e-05 µg/mL
- MIC ([2]; 24 h, A. flavus strain MRL No. 18743, 24 hours, read-out: MIC100 (μg/mL) in 24 hours): 0.008 µg/mL
- MIC ([2]; 24 h, A. flavus strain MRL No. 18744, 24 hours, read-out: MIC100 (μg/mL) in 24 hours): 0.008 µg/mL
- MIC ([2]; 48 h, A. flavus strain MRL No. 17840, 48 hours, read-out: MIC100 (μg/mL) in 48 hours): 0.004 µg/mL
- MIC ([2]; 48 h, A. flavus strain MRL No. 17842, 48 hours, read-out: MIC100 (μg/mL) in 48 hours): 0.002 µg/mL
- MIC ([2]; 48 h, A. flavus strain MRL No. 18736, 48 hours, read-out: MIC100 (μg/mL) in 48 hours): 0.002 µg/mL
- MIC ([2]; 48 h, A. flavus strain MRL No. 18743, 48 hours, read-out: MIC100 (μg/mL) in 48 hours): 0.015 µg/mL
- MIC ([2]; 48 h, A. flavus strain MRL No. 18744, 48 hours, read-out: MIC100 (μg/mL) in 48 hours): 0.002 µg/mL
Compound: CN(C/C=C/C#CC(C)(C)C)Cc1cccc2ccccc12 [Terbinafine hydrochloride, terbinafine hydrochloride]
- morphological changes observed ([3]; 3 mg/mL, 24, 48, 72 and 96 hours): no morphological changes
- Week 1 Change in morphology If yes, description of change ([3]; 3 mg/mL): no presence of vacuoles within the hyphae
- Week 1 Change in morphology If yes, description of change ([3]; 3 mg/mL, listed as Tcrbinafine): no
- Week 2 Change in morphology If yes, description of change ([3]; 3 mg/mL): Yes: hyphae under
- 24 hour Change in morphology If yes, description of change ([3]; 15 mg/mL, 24 hour): no
- 48 hour Change in morphology If yes, description of change ([3]; 15 mg/mL, 48 hour): no
- 72 hour Change in morphology If yes, description of change ([3]; 15 mg/mL, 72 hour): no
- 96 hour Change in morphology If yes, description of change ([3]; 15 mg/mL, 96 hour): no
- Week 1 Change in morphology If yes, description of change ([3]; 15 mg/mL, listed as Terbinafine): no
- Week 1 Change in morphology If yes, description of change ([3]; 15 mg/mL, listed as terbinafine): no presence of vacuoles within the hyphae
- Week 2 Change in morphology If yes, description of change ([3]; 15 mg/mL): no
- morphological changes observed ([4]; 1 μg/mL, 24, 48, 72 and 96 hours): no morphological changes
- 24 hour Change in morphology If yes, description of change ([4]; 1 μg/mL): no
- 48 hour Change in morphology If yes, description of change ([4]; 1 μg/mL): no
- 72 hour Change in morphology If yes, description of change ([4]; 1 μg/mL): no
- 96 hour Change in morphology If yes, description of change ([4]; 1 μg/mL): no
- Week 1 Change in morphology If yes, description of change ([4]; 1 μg/mL, listed as Terbinafine): Yes: hyphae under
- Week 1 Change in morphology If yes, description of change ([4]; 1 μg/mL, listed as terbinafine): had vacuoles within the hyphae
- Week 2 Change in morphology If yes, description of change ([4]; 1 μg/mL, Week 2): Yes: hyphae under
- 24 hour Change in morphology If yes, description of change ([4]; 3 mg/mL): no
- 48 hour Change in morphology If yes, description of change ([4]; 3 mg/mL): no
- 72 hour Change in morphology If yes, description of change ([4]; 3 mg/mL): no
- 96 hour Change in morphology If yes, description of change ([4]; 3 mg/mL): no

Reference: patent US20120245107A1, “METHODS OF REDUCING THE PROLIFERATION AND VIABLILITY OF MICROBIAL AGENTS” (Targeted Delivery Technologies Limited, priority 2009, published 2012)
